Measurements published in US11578055B2, “Triazacyclododecansulfonamide (“TCD”)-based protein secretion inhibitors” (KEZAR LIFE SCIENCES, priority 2018, dated 2023).
Where a name gives a salt, the structure may show the parent alone. Read-outs that look alike come from different tables or passages of the source.

Experiments:
[1] = system: full length TNFα (amino acids 1-233) fused to Gaussia Luciferase; experiment: Dox Induced TNFα-FL-Gluc Assay; format: cell-based; conditions: 24 hr, read-out: 24 hr Dox Inducible TNFaFLGluc 293FRT/TO: Mean IC50
Procedure, shortened: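 Stable Flp-In 293 T-REx line expressing doxycycline-inducible full-length TNFα fused to Gaussia luciferase; cells plated the day before, then treated with compound dilutions in doxycycline-containing medium at 37° C, 5% CO2. Unspecified stereocentres mean stereoisomer mixtures were tested.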

[2] = system: multiple myeloma cell line U266B1; experiment: U266 Cell Viability Assay; format: cell-based, human; conditions: Homo sapiens, U-266, 48 hr
Procedure, shortened: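 U266B1 myeloma cells in RPMI 1640 with 10% FBS were treated with compound dilutions for 48 h at 37° C, 5% CO2. Viability was read as CellTiter-Glo luminescence. Data for structures drawn without stereochemistry refer to stereoisomer mixtures.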

[3] = In Vitro Microsome Stability Assay (monkey); format: in vitro ADME
Procedure, shortened: (§1)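 Species liver microsomes in potassium phosphate buffer were preincubated at 37 °C for 3–5 min with test compound (added from 0.25 mM DMSO stock), then started with NADPH. Samples at 0 and 30 min were quenched with acetonitrile containing internal standard and analysed by LC-MS/MS; % remaining at 30 min used analyte/IS AUC ratios relative to t=0.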

[4] = In Vitro Microsome Stability Assay (rat); format: in vitro ADME
Procedure, shortened: as §1

[5] = system: multiple myeloma cell line NCl-H929; experiment: H929 Cell Viability Assay; format: cell-based, human; conditions: Homo sapiens, NCI-H929, 48 h
Procedure, shortened: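 NCI-H929 myeloma cells in RPMI 1640 with 10% FBS were treated with compound dilutions for 48 h at 37 °C, and viability was then read by CellTiter-Glo luminescence. Compounds drawn without stereochemistry were tested as stereoisomer mixtures.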

[6] = system: PD1 signal sequence plus 10 amino acids fused to Gaussia Luciferase (PD1-ss+10aa/Gaussia Luciferase); experiment: Dox Induced PD1-ss-Gluc Assay; format: cell-based; conditions: 24 hr, read-out: 24 hr Dox Inducible PD1ssGluc 293FRT/TO: Mean IC50
Procedure, shortened: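 Stable Flp-In 293 T-REx line expressing the fusion under tetracycline-inducible control, plated the day before assay. Compound dilutions added with doxycycline and incubated at 37 °C, 5% CO2; unspecified stereocentres mean data refer to stereoisomer mixtures.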

[7] = In Vitro Microsome Stability Assay (human); format: in vitro ADME
Procedure, shortened: as §1

[8] = In Vitro Microsome Stability Assay (mouse); format: in vitro ADME
Procedure, shortened: as §1

[9] = U266, read-out: 48 hr U266 Viability Celltiter-Glo: Mean EC50
[10] = H929, read-out: 48 hr H929 Viability Celltiter-Glo: Mean EC50
[11] = monkey liver microsomes, 30 min w/ NADPH
[12] = rat liver microsomes, 30 min w/ NADPH
[13] = human liver microsomes, 30 min w/ NADPH
[14] = mouse liver microsomes, 30 min w/ NADPH

Row | Compound | IC50 ([1]; 293FRT/TO) | EC50 [2, 9] | Liver Microsome Stability-% Left after 30 min w/ NADPH (%) Monkey ([3]; monkey, 30 min, NADPH) | Liver Microsome Stability-% Left after 30 min w/ NADPH (%) Rat ([4]; rat, 30 min, NADPH) | EC50 [5, 10] | IC50 ([6]; 293FRT/TO) | Liver Microsome Stability-% Left after 30 min w/ NADPH (%) Human ([7]; human, 30 min, NADPH) | Liver Microsome Stability-% Left after 30 min w/ NADPH (%) Mouse ([8]; mouse, 30 min, NADPH) | IC50 ([1]; Dox inducible, 293FRT/TO cells) | EC50 ([2]; U266, Celltiter-Glo) | Liver Microsome Stability-% Left after 30 min w/ NADPH (%) Monkey [3, 11] | Liver Microsome Stability-% Left after 30 min w/ NADPH (%) Rat [4, 12] | EC50 ([5]; H929, Celltiter-Glo) | IC50 ([6]; Dox inducible, 293FRT/TO cells) | Liver Microsome Stability-% Left after 30 min w/ NADPH (%) Human [7, 13] | Liver Microsome Stability-% Left after 30 min w/ NADPH (%) Mouse [8, 14]
1 | C=C1CN(S(=O)(=O)c2ccc(N(C)C)cc2)CCCN(CC2CCCCC2)CCCN(S(=O)(=O)N2CCN(c3cccc(Cl)c3)CC2)C1 [A84, 4-[(5-{[4-(3-chlorophenyl)piperazin-1-yl]sulfonyl}-9-(cyclohexylmethyl)-3-methylidene-1,5,9-triazacyclododecan-1-yl)sulfonyl]-N,N-dimethylaniline] | > 25 µM | > 25 µM | 65.8% | 67.3% | > 25 µM | 0.176 µM | 60.6% | 68.3% | – | – | – | – | – | – | – | –
2 | C=C1CN(S(=O)(=O)c2ccc(C)cc2)CCCN(CC2CCCCC2)CC(C)CN(S(=O)(=O)c2ccc(C)cc2)C1 (stereo not drawn) [B2, 1-(cyclohexylmethyl)-3-methyl-5,9-bis(4-methylbenzenesulfonyl)-7-methylidene-1,5,9-triazacyclododecane] | – | – | – | – | – | – | – | – | > 25 µM | > 25 µM | 0.23% | 1.46% | > 25 µM | 1.72 µM | 0.35% | 0.55%
3 | CN(C)c1ccc(S(=O)(=O)N2CCCN(CC3CCCCC3)CCCN(S(=O)(=O)N3CCCCC3)CC2)cc1 [B3, 4-{[8-(cyclohexylmethyl)-4-(piperidine-1-sulfonyl)-1,4,8-triazacycloundecan-1-yl]sulfonyl}-N,N-dimethylaniline] | – | – | – | – | – | – | – | – | > 25 µM | 12.6 µM | 0.08% | 0.1% | 9.44 µM | 7.38 µM | 0.26% | 0.15%
4 | CN(C)c1ccc(S(=O)(=O)N2CCCN(CC3CCCCC3)CCCN(S(=O)(=O)N3CCCCC3)C2)cc1 [B4, 4-{[7-(cyclohexylmethyl)-3-(piperidine-1-sulfonyl)-1,3,7-triazecan-1-yl]sulfonyl}-N,N-dimethylaniline] | – | – | – | – | – | – | – | – | > 25 µM | 16.6 µM | 1.7% | 2.79% | > 25 µM | > 25 µM | 12.1% | 2.21%
5 | CN(C)c1ccc(S(=O)(=O)NCCCN(CCCNS(=O)(=O)N2CCC(c3ccccc3)CC2)CC2CCCCC2)cc1 [B7, N-{3-[(cyclohexylmethyl)(3-{[(4-phenylpiperidin-1-yl)sulfonyl]amino}propyl)amino]propyl}-4-(dimethylamino)benzene-1-sulfonamide] | – | – | – | – | – | – | – | – | 24.3 µM | 7.48 µM | 0.04% | 0.58% | 6.86 µM | 6.9 µM | 0.03% | 1.47%
6 | CN(C)c1ccc(S(=O)(=O)N2C/C=C\CN(S(=O)(=O)N3CCC(c4ccccc4)CC3)CCCN(CC3CCCCC3)CCC2)cc1 [B8, 4-{[(11Z)-5-(cyclohexylmethyl)-9-[(4-phenylpiperidin-1-yl)sulfonyl]-1,5,9-triazacyclotridec-11-en-1-yl]sulfonyl}-N,N-dimethylaniline] | – | – | – | – | – | – | – | – | > 25 µM | > 25 µM | 15.5% | 23.8% | > 25 µM | > 25 µM | 22.1% | 17.1%
7 | CN(C)c1ccc(S(=O)(=O)N2C/C=C/CN(S(=O)(=O)N3CCC(c4ccccc4)CC3)CCCN(CC3CCCCC3)CCC2)cc1 [B9, 4-{[(11E)-5-(cyclohexylmethyl)-9-[(4-phenylpiperidin-1-yl)sulfonyl]-1,5,9-triazacyclotridec-11-en-1-yl]sulfonyl}-N,N-dimethylaniline] | – | – | – | – | – | – | – | – | > 25 µM | > 25 µM | 0.26% | 3.74% | > 25 µM | 3.64 µM | 0.49% | 0.36%

Continued, values first:

Row | IC50 ([1]; 293FRT/TO) | EC50 [2, 9] | Liver Microsome Stability-% Left after 30 min w/ NADPH (%) Monkey ([3]; monkey, 30 min, NADPH) | Liver Microsome Stability-% Left after 30 min w/ NADPH (%) Rat ([4]; rat, 30 min, NADPH) | EC50 [5, 10] | IC50 ([6]; 293FRT/TO) | Liver Microsome Stability-% Left after 30 min w/ NADPH (%) Human ([7]; human, 30 min, NADPH) | Liver Microsome Stability-% Left after 30 min w/ NADPH (%) Mouse ([8]; mouse, 30 min, NADPH) | IC50 ([1]; Dox inducible, 293FRT/TO cells) | EC50 ([2]; U266, Celltiter-Glo) | Liver Microsome Stability-% Left after 30 min w/ NADPH (%) Monkey [3, 11] | Liver Microsome Stability-% Left after 30 min w/ NADPH (%) Rat [4, 12] | EC50 ([5]; H929, Celltiter-Glo) | IC50 ([6]; Dox inducible, 293FRT/TO cells) | Liver Microsome Stability-% Left after 30 min w/ NADPH (%) Human [7, 13] | Liver Microsome Stability-% Left after 30 min w/ NADPH (%) Mouse [8, 14] | Compound
8 | > 25 µM | > 25 µM | 42.9% | 64.9% | > 25 µM | 0.0875 µM | 25.6% | 52.2% | – | – | – | – | – | – | – | – | C=C1CN(S(=O)(=O)c2ccc(N(C)C)cc2)CCCN(CC2CCCCC2)CCCN(S(=O)(=O)N2CCN(c3ccc(Cl)cc3)CC2)C1 [A85, 4-[(5-{[4-(4-chlorophenyl)piperazin-1-yl]sulfonyl}-9-(cyclohexylmethyl)-3-methylidene-1,5,9-triazacyclododecan-1-yl)sulfonyl]-N,N-dimethylaniline]
9 | – | – | – | – | – | – | – | – | > 25 µM | > 25 µM | 0.02% | 0.01% | > 25 µM | 0.424 µM | 0.04% | 0.02% | C=C1CN(S(=O)(=O)c2ccc(C)cc2)CCCN(CC2CCCCC2)CCC(C)N(S(=O)(=O)c2ccc(C)cc2)C1 (stereo not drawn) [B1, 5-(cyclohexylmethyl)-2-methyl-11-methylene-1,9-ditosyl-1,5,9-triazacyclododecane hydrochloride]
10 | – | – | – | – | – | – | – | – | > 25 µM | > 25 µM | 0.21% | 7.08% | > 25 µM | 1.5 µM | 0.54% | 0.24% | CN(C)c1ccc(S(=O)(=O)N2CCCCN(S(=O)(=O)N3CCC(c4ccccc4)CC3)CCCN(CC3CCCCC3)CCC2)cc1 [B5]
11 | – | – | – | – | – | – | – | – | 15.4 µM | > 25 µM | 0.98% | 15.7% | > 25 µM | 0.221 µM | 9.46% | 13.5% | C=C1CN(S(=O)(=O)c2ccc(N(C)C)cc2)C(C)CCN(CC2CCCCC2)CCCN(S(=O)(=O)N2CCC(c3ccccc3)CC2)C1 (stereo not drawn) [B19, 4-{[5-(cyclohexylmethyl)-2-methyl-11-methylidene-9-[(4-phenylpiperidin-1-yl)sulfonyl]-1,5,9-triazacyclododecan-1-yl]sulfonyl}-N,N-dimethylaniline]
12 | – | – | – | – | – | – | – | – | > 25 µM | > 25 µM | 1.73% | 11.1% | > 25 µM | 0.794 µM | 5.43% | 3.41% | CN(C)c1ccc(S(=O)(=O)N2CCCN(CC3CCCCC3)CCCN(S(=O)(=O)N3CCC(c4ccccc4)CC3)CC(=O)C2)cc1 [B20, 9-(cyclohexylmethyl)-1-((4-(dimethylamino)phenyl)sulfonyl)-5-((4-phenylpiperidin-1-yl)sulfonyl)-1,5,9-triazacyclododecan-3-one]
